From US6903079B2, “Nucleoside compounds and compositions thereof” (Inotek Pharmaceuticals Corporation, priority 2000, dated 2005)

How the values were obtained:
[1] = system: rat model of middle cerebral artery occlusion/reperfusion; experiment: Middle cerebral artery occlusion/reperfusion; type: in vivo; details: 2 h occlusion, 24 h reperfusion, 10 mg/kg i.v. then 10 mg/kg/h, tetrazolium staining
Description: Occlusion lasted for 2 hours, followed by reperfusion for 24 hours. Infarct size was quantified with tetrazolium staining and survival and neurological scores were monitored. The compounds were administered at 10 mg/kg i.v. 5 min before the start of reperfusion in one group, and continued at a rate of 10 mg/kg/h infusion during the reperfusion. Vehicle-treated animals (control) developed a >50% mortality over 24 hours, whereas <10% of the animals died in the drug treated groups. The compounds tested reduced the size of brain infarction by 64±2 and 57±3%, respectively.

[2] = system: endotoxin-induced lethality in a mouse model; experiment: Endotoxin-induced lethality (systemic inflammation); type: in vivo
Description: The compounds were given as oral gavage at 10 mg/kg, twice a day.

[3] = system: mouse model of gut ischemia-reperfusion; experiment: Gut ischemia-reperfusion by ligation and release of superior mesenteric artery; FD4 gut permeability in everted gut sacks; details: 10 mg/kg i.v. 10 min prior to reperfusion
Description: In order to examine the efficacy of the compounds of the invention in ischemia-reperfusion conditions, the effect of selected compounds in a local model of reperfusion injury was examined. […] The artery was occluded for 45 min, followed by reperfusion for 1 h. Following the end of the reperfusion, gut permeability was measured with the fluorescein isothiocyanate-conjugated dextran (FD4) method in everted gut sacks.
The artery was occluded for 45 min, followed by reperfusion for 1 h. Following the end of the reperfusion, gut permeability was measured with the FD4 method in everted gut sacks.

PARS = PARS (Mus musculus, UniProt P11103); experiment: PARS inhibition by nucleoside derivatives (in vitro inflammation models); type: cell-based
Chain of PARS (P11103 whole entry): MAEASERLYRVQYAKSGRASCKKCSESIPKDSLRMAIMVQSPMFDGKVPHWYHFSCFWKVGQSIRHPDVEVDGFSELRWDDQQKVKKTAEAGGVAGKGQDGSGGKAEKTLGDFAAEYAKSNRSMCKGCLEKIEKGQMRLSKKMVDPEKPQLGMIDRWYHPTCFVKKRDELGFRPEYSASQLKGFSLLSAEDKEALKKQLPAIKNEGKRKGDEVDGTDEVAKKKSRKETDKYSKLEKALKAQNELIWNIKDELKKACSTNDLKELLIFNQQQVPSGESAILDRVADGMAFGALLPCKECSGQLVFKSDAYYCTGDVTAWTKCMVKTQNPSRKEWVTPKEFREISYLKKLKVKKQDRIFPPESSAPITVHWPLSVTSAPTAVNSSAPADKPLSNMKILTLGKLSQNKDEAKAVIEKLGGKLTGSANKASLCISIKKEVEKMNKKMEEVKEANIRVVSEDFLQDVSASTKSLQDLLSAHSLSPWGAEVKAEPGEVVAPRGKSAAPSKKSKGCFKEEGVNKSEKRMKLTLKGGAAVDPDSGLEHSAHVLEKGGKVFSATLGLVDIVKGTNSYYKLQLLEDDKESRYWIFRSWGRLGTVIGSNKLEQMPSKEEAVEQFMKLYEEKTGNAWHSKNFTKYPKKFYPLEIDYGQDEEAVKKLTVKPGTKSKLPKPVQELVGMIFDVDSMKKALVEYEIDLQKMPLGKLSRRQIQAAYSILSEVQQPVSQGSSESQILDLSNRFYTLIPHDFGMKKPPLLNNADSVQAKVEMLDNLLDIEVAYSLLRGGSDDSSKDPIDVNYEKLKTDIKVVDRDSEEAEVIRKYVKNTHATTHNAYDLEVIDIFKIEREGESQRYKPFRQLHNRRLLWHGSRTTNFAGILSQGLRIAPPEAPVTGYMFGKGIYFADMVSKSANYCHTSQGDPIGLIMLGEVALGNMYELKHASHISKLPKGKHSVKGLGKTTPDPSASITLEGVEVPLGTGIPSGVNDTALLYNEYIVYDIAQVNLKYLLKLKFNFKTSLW
From the text: For example, conjugates of adenosine derivatives were investigated for PARS inhibition.

[4] = system: myocardial ischemia-reperfusion in Male Wistar rats; experiment: Myocardial infarction by left anterior descending coronary artery occlusion/reperfusion; type: in vivo; details: rat; 20 mg/kg i.v. 10 min before reperfusion; 1 h ischemia, 2 h reperfusion
Description: In another set of experiments, Male Wistar rats were anesthetized with thiopentone sodium (60 mg/kg, i.p.) and were subjected to myocardial infarction. The chest was opened at the fourth intercostal space and a 5.0 silk ligature was placed around the left anterior descending coronary artery for occlusion. Next, one hour of myocardial ischemia was performed, followed by 2 h reperfusion. Myocardial infarct size was quantified by tetrazolium staining.

Nc1ncnc2c1ncn2C1OC(C(=O)N2CCN(CC(=O)Nc3cccc4c3CNC4=O)CC2)C(O)C1O (stereo not shown) [Compound 130]
reduction of the size of brain infarction [1]: 57±3%
protection against endotoxin-induced lethality [2]: protected against endotoxin-induced lethality
reduction of the increase in the permeability of the gut [3]: 74%
PARS inhibitory activity (in words) (PARS): most potent
inhibition at 10 µM (PARS; 10 μM, values marked *, asterisk not explained, read-out: Inhibition at 10 μM (values marked *)): 97%
Inhibition at 200 nm (PARS; 200 nm, printed in the 100 μM column): 100 at 200 nm
reduction of myocardial infarct size [4]: 35±7%
